Assay results: patent publication US20080027022A1, “METHOD TO TREAT GASTRIC LESIONS” (priority 2006, published 2008)

Legend:
Type in all cases: in vivo, rat
IL-1β = assay: Gastric mucosal concentration of IL-1β after aspirin (ELISA); details: rats, gastric mucosa, 3 h after aspirin
Protocol: (§1) One hundred milligrams of scraped mucosa was homogenized for 30 sec with a polytron homogenizer (PT 1200, KInematica AG, Littau, Switzerland) in 1.0 ml of ice-cold potassium phosphate buffer (pH 7.4). Following centrifugation at 10,000 g for 10 minutes, aliquots of homogenate supernatants in PBS were obtained by centrifugation (10,000 g for 10 minutes). The total protein was measured by Bradford's method. The concentration of TNF-α and IL-1β in the supernatant of mucosal homogenates was determined by ELISA (R&D systems Inc., Minneapolis, Minn., USA) according to the manufacture's instruction. After color development, optimal density was measured with microplate reader. The concentration of TNF-α and IL-1β were expressed as pictogram/mg protein.

gastric acid secretion = assay: Gastric secretion, pylorus-ligation method; details: rats, 5 μg/kg i.p., 3 h
Protocol: Gastric juice was collected using the pylorus-ligation method. Briefly, rats were fasted for 24 hours, placed in restraint cages, and injected intraperitoneal with 5 μg/kg of ATL-146e. Thirty minutes after injection, pylorus ligation was performed. The stomach was removed 3 hours after pylorus ligation, and the gastric contents were collected. Following centrifugation the acid content of the supernatant was determined by titration with 0.01 mol NaOH to pH 7.0 using pH meter (f50 pH Meter; Beckman, Tokyo, Japan), and used to calculate gastric acid secretion in mEq/3 h.

PGE2 = assay: Mucosal content of PGE2 (radioimmunoassay)
Protocol: A part of fundic mucosa (about 100 mg) was excised for determination of PGE2 synthesis. The samples were weighed, finely minced with scissors for 15 sec, then suspended in 1.0 ml of 10 mM sodium phosphate buffer (pH 7.4). The samples were then incubated in a shaking bath (37°) for 29 min followed by centrifugation (9000 g for 30 sec). The supernatant was frozen and subsequent determination of PGE2 was performed by radioimmunoassay using PGE2 [125I] RIA kit (Dupont/NEN, Boston, Mass., USA).

TNF-α = assay: Gastric mucosal concentration of TNF-α after aspirin (ELISA); details: rats, gastric mucosa, 3 h after aspirin
Protocol: as §1

myeloperoxidase (MPO) = assay: Myeloperoxidase (MPO) concentration in the gastric mucosa after aspirin; details: rats, 3 h after aspirin, normal 2.8±0.2, vehicle 13.8±1.2, P<0.001
Protocol: An assay of gastric mucosal myeloperoxidase concentration was applied to quantify the degree of neutrophil infiltration. Three hundred milligrams of scraped mucosa was homogenized for 30 sec with a polytron homogenizer (PT 1200, KInematica AG, Littau, Switzerland) in 1.0 ml of ice-cold 0.5% hexadecyliltrimethylammonium bromide in 50 mM phosphate buffer (pH 6.0). Hexadecyliltrimethylammonium bromide is used to negate the pseudoperoxidase activity of hemoglobin and to solubilize membrane-bound MPO. The homogenate was sonicated (U50 IKA Werke Grm1H and Co. KG, Staufen, Germany) for 10 seconds, freeze-thawed three times and centrifuged for 20 minutes at 18,000 g. The supernatant was taken for determination of the enzyme activity utilizing an ELISA kit (Bioxytech, Oxis International, Inc. Portland, Oreg., USA). The change in absorbance at 405 nm was measured with a spectrophotometer (Microplate reader model 3550, Bio-Rad, Hercules, Calif., USA). The concentration of myeloperoxidase was expressed as nanogram per mg protein measured using Bradford's method.

[1] = tested on: Aspirin-induced gastric injury; assay: Aspirin-induced gastric mucosal injury model (ulcer index); details: rats, 3 h after aspirin, control 29.8±7.7
Protocol: Male Sprague-Dawley rats weighting 250-300 g were fed a standard laboratory diet and water ad libitum, and kept in cages in a temperature and humidity controlled room with a 12 hour dark-light cycle before and during the experiment. Prior to administration of aspirin, animals were deprived of food for 24 hours but had free access to water. This experimental protocol was approved by the Akita University Animal Care Committee. Aspirin-induced gastric injury was produced by intragastric administration of aspirin (200 mg/kg) and HCl (0.15 N, 8 ml/kg). ATL-146e (2.5 or 5 μg/kg, n=5 in each dose) or vehicle was injected intraperitoneally 30 minutes prior to aspirin administration. The animals were sacrificed by stunning and cervical dislocation 3 hours after aspirin administration and the stomach was removed. Gastric mucosal lesions were measured by two independent observers blinded to the treatment. The ulcer index was calculated as the sum of the lengths of all lesions.

| SMILES | reduction of the increase in IL1-β above control levels caused by aspirin (IL-1β; 2.5 μg/kg) | reduction of the increase in IL1-β above control levels caused by aspirin (IL-1β; 5 μg/kg) | increase in gastric acid output (gastric acid secretion; P<0.05) | gastric acid output (gastric acid secretion; without compound 114, P<0.05) | effect on the reduction of gastric PGE2 concentration induced by aspirin (PGE2; rats, 5 μg/kg before aspirin 200 mg/kg, P>0.05 vs. aspirin alone) | reduction of the increase in TNF-α above control levels caused by aspirin (TNF-α; 2.5 μg/kg) | reduction of the increase in TNF-α above control levels caused by aspirin (TNF-α; 5 μg/kg) | MPO concentration in the gastric mucosa (myeloperoxidase (MPO); 2.5 μg/kg pretreatment) | MPO concentration in the gastric mucosa (myeloperoxidase (MPO); 5 μg/kg pretreatment) | ulcer index (total length of gastric erosions) ([1]; 2.5 μg/kg i.p. 30 min before aspirin 200 mg/kg + HCl, P<0.05) | ulcer index (total length of gastric erosions) ([1]; 5.0 μg/kg i.p. 30 min before aspirin 200 mg/kg + HCl, P<0.01) | reduction of PGE2 concentration vs vehicle-treated rats (PGE2; aspirin 200 mg/kg alone, P<0.05) | concentration of PGE2 in gastric mucosa (PGE2; rats, aspirin 200 mg/kg alone (group C), vehicle-treated 255.3±64.7) |
| --- | --- | --- | --- | --- | --- | --- | --- | --- | --- | --- | --- | --- | --- |
| CCNC(=O)C1OC(n2cnc3c(N)nc(C#CCC4CCC(C(=O)OC)CC4)nc32)C(O)C1O (stereo not shown) [ATL-146e, 4-{3-[6-Amino-9-(5-ethylcarbamoyl-3,4-dihydroxy-tetrahydro-furan-2-yl)-9H-purin-2-yl]-prop-2-ynyl}-cyclohexanecarboxylic acid methyl ester] | 64.0% | 97.2% | threefold | 326 mmolq/3 h | did not interfere with the reduction of gastric PGE2 concentration induced by aspirin | 90.3% | 99.7% | 2.9±0.35 μg/g protein | 2.7±0.14 μg/g protein | 7.0±2.34 mm | 3.1±1.42 mm |  |  |
| CC(=O)Oc1ccccc1C(=O)O [aspirin, acetylsalicylic acid] |  |  |  |  |  |  |  |  |  |  |  | 82.3% | 47.4 ± 5.6 ng/g |
